Changes are numbered by the printed parent chain. Where no end group is shown, it is not given here. The star is where a group is joined. Dansyl = CN(C)c1cccc2c(S(=O)(=O)*)cccc12; TAMRA = carboxytetramethylrhodamine
Key:
[1] = target: T1, Mint2 PARM 364-570 (Y524W), pWT PARM (PTB domain and ARM linker) (Homo sapiens, UniProt Q99767, Y524W); experiment: Stopped flow binding kinetics, APP peptides to PARM (pseudo-wild type)
T1 construct: made in house; host or cells: Escherichia coli BL21(DE3)pLysS
T1 sequence (Q99767 364-570 Y524W): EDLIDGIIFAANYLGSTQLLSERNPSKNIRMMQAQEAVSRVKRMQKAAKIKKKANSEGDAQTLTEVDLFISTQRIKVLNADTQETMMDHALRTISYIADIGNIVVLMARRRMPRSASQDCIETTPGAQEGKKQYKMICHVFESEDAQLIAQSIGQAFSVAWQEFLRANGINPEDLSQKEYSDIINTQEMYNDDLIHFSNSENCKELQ
Experimental: (§1) Kinetic binding rate constants were obtained using an upgraded SX17 stopped flow spectrometer (Applied Photophysics), and all experiments were conducted at 25 °C in 500 mM NaCl and 25 mM HEPES (pH 7.4). The relatively high NaCl concentration was used to improve the solubility of the proteins. The change in tryptophan fluorescence was measured using a band-pass filter (excitation at 280 nm and emission at 330 ± 30 nm) when mixing varying concentrations (2–50 μM) of the dansyl peptides with 1 μM protein or 0.5 μM semisynthetic proteins. […] For PTB variants, we used the kobs value from the fast kinetic phase for the analysis. […] We report the errors in kon and koff from the curve fitting. […] For these koff determinations, we report the standard error of the mean of three replicates. Φ values were defined as ΔΔGTS/ΔΔGeq, where ΔΔGTS = RT ln(kon^WT/kon^mut.) and ΔΔGeq = RT ln(Kd^mut./Keq^WT). Calculated coupling free energies were defined as ΔΔΔGEq = RT ln(Kd^mut.:WTKd^WT:mut./Kd^WT:WTKd^mut.:mut.) or ΔΔΔGTS = RT ln(kon^WT:WTkon^mut.:mut./kon^mut.:WTkon^WT:mut.) as previously described.[27] Propagated errors are reported.

[2] = target: T2, Mint2 PTB 364-538 (without the ARM linker) (Homo sapiens, UniProt Q99767, Y524W); experiment: Stopped flow binding kinetics, APP peptides to PTB
T2 construct: made in house; host or cells: Escherichia coli BL21(DE3)pLysS
T2 sequence (Q99767 364-538 Y524W): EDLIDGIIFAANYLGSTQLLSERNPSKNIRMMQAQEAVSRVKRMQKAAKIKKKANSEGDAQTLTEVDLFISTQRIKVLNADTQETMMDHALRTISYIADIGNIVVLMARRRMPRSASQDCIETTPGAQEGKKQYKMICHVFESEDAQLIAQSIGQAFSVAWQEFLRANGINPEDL
Experimental: as §1

[3] = target: T3, Mint2 PARM 364-570 (Y524W, Y543A) (Homo sapiens, UniProt Q99767, Y524W/Y543A); experiment: Stopped flow binding kinetics, APP peptides to PARM^Y543A; parameters: made in house; host or cells: Escherichia coli BL21(DE3)pLysS
T3 sequence (Q99767 364-570 Y524W/Y543A): T1 sequence (Q99767 364-570 Y524W) with Y180A
Experimental: as §1

[4] = target: Mint2 PARMWT 364-570 (Homo sapiens, UniProt Q99767); experiment: biochemical
[5] = target: T3, Mint2 PARM 364-570 (Y524W, Y543A); experiment: biochemical
[6] = target: Mint2 PTB 364-538 (Homo sapiens, UniProt Q99767, Y524W); experiment: biochemical
[7] = target: T4, Mint2 PARM 364-570 (Y524W, Y543E) (Homo sapiens, UniProt Q99767, Y524W/Y543E); experiment: biochemical
T4 sequence (Q99767 364-570 Y524W/Y543E): T1 sequence (Q99767 364-570 Y524W) with Y180E

[8] = target: Mint2 PARM 364-570 (Y524W) (Homo sapiens, UniProt Q99767, Y524W); experiment: biochemical
[9] = target: T4, Mint2 PARM 364-570 (Y524W, Y543E); experiment: Stopped flow binding kinetics, APP peptides to PARM^Y543E; parameters: made in house; host or cells: Escherichia coli BL21(DE3)pLysS
Experimental: as §1

[10] = target: T5, pseudo-wild type (pWT) PARM domain of Mint2 (residues 364-570, Y524W) (human, UniProt Q99767 364-570, Y524W); experiment: fluorescence polarisation; details: both partners purified
[11] = target: T6, PARM^WT (Mint2 residues 364-570) (human, UniProt Q99767 364-570); experiment: fluorescence polarisation; details: both partners purified
[12] = target: T5, pseudo-wild type (pWT) PARM domain of …; experiment: stopped-flow fluorescence kinetics; details: both partners purified
[13] = target: PTB without the ARM linker (Mint2 residues 364-538) (human, UniProt Q99767 364-538, Y524W); experiment: stopped-flow fluorescence kinetics; details: both partners purified
[14] = target: PARM^Y543A (human, UniProt Q99767 364-570, Y524W | Y543A); experiment: stopped-flow fluorescence kinetics; details: both partners purified
[15] = target: T6, PARM^WT (Mint2 residues 364-570); experiment: stopped-flow fluorescence kinetics; details: both partners purified
[16] = target: PARM^Y543E (human, UniProt Q99767 364-570, Y524W | Y543E); experiment: stopped-flow fluorescence kinetics; details: both partners purified
[17] = target: PARM^WT (human Mint2 PTB domain with ARM linker, residues 364-570, no Y524W) (human, UniProt Q99767 364-570); experiment: fluorescence polarisation; details: both partners purified
[18] = target: PARM^Y543E (human Mint2 364-570, Y524W, Y543E) (human, UniProt Q99767 364-570, Y524W | Y543E); experiment: fluorescence polarisation; details: both partners purified
Chain of PARM^Y543E (human Mint2 364-570, Y524W, Y543E) (Q99767 364-570 Y524W/Y543E): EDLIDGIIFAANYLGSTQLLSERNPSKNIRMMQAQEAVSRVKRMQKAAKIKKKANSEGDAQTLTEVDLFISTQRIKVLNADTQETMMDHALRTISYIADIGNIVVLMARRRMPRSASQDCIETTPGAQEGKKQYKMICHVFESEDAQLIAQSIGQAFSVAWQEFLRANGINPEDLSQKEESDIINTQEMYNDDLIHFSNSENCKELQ

[19] = target: PARM^Y543A (human Mint2 364-570, Y524W, Y543A) (human, UniProt Q99767 364-570, Y524W | Y543A); experiment: fluorescence polarisation; details: both partners purified
[20] = target: PTB (human Mint2 PTB domain without the ARM linker, residues 364-538, Y524W) (human, UniProt Q99767 364-538, Y524W); experiment: fluorescence polarisation; details: both partners purified
[21] = target: PARM, pseudo-wild type (human Mint2 364-570, Y524W) (human, UniProt Q99767 364-570, Y524W); experiment: fluorescence polarisation; details: both partners purified

C[C@@H](O)[C@H](NC(=O)[C@@H]1CCCN1C(=O)[C@H](CC(N)=O)NC(=O)[C@H](CCC(=O)O)NC(=O)[C@H](Cc1ccc(O)cc1)NC(=O)CNC(=O)[C@H](CC(N)=O)NC(=O)CNC(=O)[C@H](CC(N)=O)NC(=O)[C@H](CC(N)=O)NS(=O)(=O)c1cccc2c(N(C)C)cccc12)C(=O)N[C@@H](Cc1ccc(O)cc1)C(=O)N[C@@H](CCCCN)C(=O)N[C@@H](Cc1ccccc1)C(=O)N[C@@H](Cc1cccc2ccccc12)C(=O)N[C@@H](CCC(=O)O)C(=O)O [Peptide F765Nal1]
Kd [1]: 1500 nM
Kd [2]: 120 nM
Kd [3]: 500 nM
Ki [4]: 2600 nM
Ki [5]: 1000 nM
Ki [6]: 560 nM
Ki [7]: 1100 nM

C[C@H](NC(=O)[C@H](CC(N)=O)NC(=O)[C@H](CCC(=O)O)NC(=O)[C@H](Cc1ccc(O)cc1)NC(=O)CNC(=O)[C@H](CC(N)=O)NC(=O)CNC(=O)[C@H](CC(N)=O)NC(=O)[C@H](CC(N)=O)NS(=O)(=O)c1cccc2c(N(C)C)cccc12)C(=O)N[C@H](C(=O)N[C@@H](Cc1ccc(O)cc1)C(=O)N[C@@H](CCCCN)C(=O)N[C@@H](Cc1ccccc1)C(=O)N[C@@H](Cc1ccccc1)C(=O)N[C@@H](CCC(=O)O)C(=O)O)[C@@H](C)O [Peptide P760A]
Ki [8]: 40000 ± 800 nM

C[C@@H](O)[C@H](NC(=O)[C@@H]1CCCN1C(=O)[C@H](CC(N)=O)NC(=O)[C@H](CCC(=O)O)NC(=O)[C@H](Cc1ccc(O)cc1)NC(=O)CNC(=O)[C@H](CC(N)=O)NC(=O)CNC(=O)[C@H](CC(N)=O)NC(=O)[C@H](CC(N)=O)NS(=O)(=O)c1cccc2c(N(C)C)cccc12)C(=O)N[C@@H](Cc1ccc(O)cc1)C(=O)N[C@@H](CCCCN)C(=O)N[C@@H](Cc1cccc2ccccc12)C(=O)N[C@@H](Cc1ccccc1)C(=O)N[C@@H](CCC(=O)O)C(=O)O [Peptide F764Nal1]
Kd [1]: 1100 nM
kon ([1]; pH 7.4): 1.2e+06 M⁻¹ s⁻¹
koff ([1]; stopped flow, same buffer, 25 °C, from fit of kobs vs peptide concentration, or displacement with 50–150 µM APP^WT when not well-defined): 1.3 s⁻¹
Kd [2]: 70 nM
koff [2]: 2.3 s⁻¹
kon ([2]; pH 7.4): 3.1e+07 ± 1e+06 M⁻¹ s⁻¹
Kd [3]: 490 nM
koff [3]: 1.3 s⁻¹
kon ([3]; pH 7.4): 2.5e+06 M⁻¹ s⁻¹
Ki [4]: 1300 nM
Ki [5]: 500 nM
Kd [9]: 430 nM
koff [9]: 1.2 s⁻¹
kon ([9]; pH 7.4): 2.9e+06 M⁻¹ s⁻¹
Ki [8]: 500 nM
Ki [6]: 290 nM
Ki [7]: 470 ± 30 nM

{TAMRA}-NNGNGYENPTYKFFE [(TAMRA)-NNG-NGYENPTYKFFE]
binding result [10]: binds
binding result [11]: binds

Dansyl-NGYENPTYKFFE [dansyl-APP^WT]
koff [12]: 2.3 ± 0.08 s⁻¹
kon [12]: 390000 ± 4000 M⁻¹ s⁻¹
koff [13]: ~2 s⁻¹
kon [13]: 1.1e+07 M⁻¹ s⁻¹
ratio of Kd values for PARM and PTB [13]: 0.057
fold increase in kon against PARM [14]: 2.5 fold
koff [14]: ~2 s⁻¹
koff [15]: 1.2 ± 0.05 s⁻¹
kon [15]: 380000 ± 3000 M⁻¹ s⁻¹
fold increase in kon against PARM [16]: 2.5 fold
koff [16]: ~2 s⁻¹

NGYENPTYKFFE [APP^WT 12-mer (NGYENPTYKFFE), unlabelled]
Ki [17]: 3200 nM
Ki [18]: 1100 nM
Ki [19]: 1100 nM
Ki [20]: 740 nM
Ki [21]: 3500 nM

Reference: article PMC8291497 (ACS Chemical Biology, 2021)
